Key:
GLP-1R [1] = target: T1, GLP-1R (Homo sapiens, UniProt P43220); assay: Ligand-induced GLP-1R internalization, SNAP-GLP-1R HEK293 cells; assay type: cell-based
Target sequence in this assay (P43220 24-463): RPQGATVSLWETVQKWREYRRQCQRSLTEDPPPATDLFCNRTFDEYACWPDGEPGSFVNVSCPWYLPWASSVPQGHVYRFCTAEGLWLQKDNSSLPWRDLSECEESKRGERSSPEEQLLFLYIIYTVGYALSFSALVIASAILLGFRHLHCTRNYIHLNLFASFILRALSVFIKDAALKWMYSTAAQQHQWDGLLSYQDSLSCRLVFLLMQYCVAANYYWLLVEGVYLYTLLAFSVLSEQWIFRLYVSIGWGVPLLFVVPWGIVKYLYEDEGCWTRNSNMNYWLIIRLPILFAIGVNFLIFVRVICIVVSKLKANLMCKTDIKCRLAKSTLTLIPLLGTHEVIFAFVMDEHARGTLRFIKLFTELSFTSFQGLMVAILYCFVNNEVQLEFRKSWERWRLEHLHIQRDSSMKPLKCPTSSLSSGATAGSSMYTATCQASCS

GLP-1R [2] = target: T1, GLP-1R; assay: GLP-1R Gαs [35S]GTPγS binding, GLP-1R-expressing membranes; assay type: biochemical; design: expressed in transfected cells; host or cells: HEK293; settings: efficacy (% Top), normalized to GLP-1(7-36); (SEM)
Description: (§1) Fig. 4. […] (B) Ligand-induced GTPγS binding of Gαs was performed using the GIPR-expressing membranes. […] (C) Agonist-stimulated cAMP production was measured in human GIPR expressing HEK293 cells. […] (E) Ligand-induced GTPγS binding of Gαs was performed using the GLP-1R-expressing membranes. […] (F) Agonist-stimulated cAMP production was measured in human GLP-1R-expressing HEK293 cells. […] Data presented are representative of n ≥ 3 independent experiments. Summarized data are shown in SI Appendix, Table 2. log M; log Molar.
(§2) We note that the albumin-binding propensity of fatty acid-modified peptides can confound a pharmacological comparison of molecules, given the common use of albumin and serum as nonspecific blocking agents in biological assays. Therefore, to obviate this, entirely albumin-free assays supplemented with bovine casein or bacitracin were used to prevent nonspecific binding ([10]). […]
(§3) Middle Panel: The affinity (Ki) of ligands for the GLP-1R was […]
(§4) Functional potency (EC50) and efficacy (% Top) of ligands to induce Gα s-GTPγS binding and cAMP accumulation in HEK293 cells expressing GLP-1R were determined. The equilibrium affinity (KD) of ligands for the immobilized ectodomain of the GLP-1R were quantified by surface plasmon resonance. […]
(§5) SPR data were analyzed using T200 evaluation software (Cytiva). All data are presented as geometric means with SEM and n values according to established practices. ND, not determined. NA, not applicable.
Target sequence in this assay (P43220 24-463): as above

GLP-1R [3] = target: T1, GLP-1R; assay: GLP-1R low density cAMP accumulation in HEK293 cells; assay type: cell-based; design: expressed in transfected cells; host or cells: HEK293; settings: efficacy (% Top), normalized to GLP-1(7-36); (SEM)
Description: as §1, §2, §3, §4, §5
Target sequence in this assay (P43220 24-463): as above

GLP-1R [4] = target: T1, GLP-1R; assay: β-arrestin 1 recruitment to the GLP-1R, NanoBRET; assay type: cell-based; design: expressed in transfected cells; settings: efficacy (% Top), relative efficacy to GLP-1; (SEM)
Description: Functional potency (EC50) […]
and efficacy (% Top) of ligands to induce Gα s -GTPγS binding and cAMP accumulation in HEK293 cells expressing GIPR were determined. The equilibrium affinity (KD) of ligands for the immobilized ectodomain of the GIPR were quantified by surface plasmon resonance. Middle Panel: The affinity (Ki) of ligands for the GLP-1R was […]
as §4
Target sequence in this assay (P43220 24-463): as above
Target sequence in this assay (P49407 whole entry partner): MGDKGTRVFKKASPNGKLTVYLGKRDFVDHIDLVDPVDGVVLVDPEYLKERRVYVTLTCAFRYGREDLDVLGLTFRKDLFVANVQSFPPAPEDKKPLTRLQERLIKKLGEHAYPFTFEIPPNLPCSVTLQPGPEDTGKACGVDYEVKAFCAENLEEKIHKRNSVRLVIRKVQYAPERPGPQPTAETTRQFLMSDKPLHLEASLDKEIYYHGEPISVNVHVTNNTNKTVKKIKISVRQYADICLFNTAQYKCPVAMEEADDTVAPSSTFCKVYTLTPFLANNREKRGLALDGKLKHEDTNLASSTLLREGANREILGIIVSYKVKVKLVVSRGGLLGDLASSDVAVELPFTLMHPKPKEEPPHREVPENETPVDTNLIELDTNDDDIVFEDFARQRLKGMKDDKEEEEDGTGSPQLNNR
recruitment to the GLP-1R were determined using the NanoBRET approach. The potency (EC50) and efficacy (% Top) for ligands to induce GLP-1R Internalization were determined using diffusion-enhanced resonance energy transfer. […]
relative efficacy for NanoBRET assays. SPR data were analyzed using T200 evaluation software (Cytiva). All data are presented as geometric means with SEM and n values according to established practices. ND, not determined. NA, not applicable.

GLP-1R [5] = target: T1, GLP-1R; assay: GRK2 recruitment to the GLP-1R, NanoBRET; assay type: cell-based; design: expressed in transfected cells; host or cells: freestyle HEK cells; settings: efficacy (% Top), relative to maximal GLP-1; (SEM)
Description: After 48 h, transfected cells were incubated in phosphate-buffered saline (PBS) containing 0.1% (wt/vol) bovine casein and varying concentrations of the ligands. […]
The potency (EC50) and efficacy (% Top) for ligands to induce GLP-1R Internalization were
determined using diffusion-enhanced resonance energy transfer.
relative efficacy for NanoBRET assays. SPR data were analyzed using T200 evaluation software (Cytiva). All data are presented as geometric means with SEM and n values
according to established practices. ND, not determined. NA, not applicable.
Target sequence in this assay (P43220 24-463): as the sequence (P43220 24-463) above
Target sequence in this assay (P25098 whole entry partner): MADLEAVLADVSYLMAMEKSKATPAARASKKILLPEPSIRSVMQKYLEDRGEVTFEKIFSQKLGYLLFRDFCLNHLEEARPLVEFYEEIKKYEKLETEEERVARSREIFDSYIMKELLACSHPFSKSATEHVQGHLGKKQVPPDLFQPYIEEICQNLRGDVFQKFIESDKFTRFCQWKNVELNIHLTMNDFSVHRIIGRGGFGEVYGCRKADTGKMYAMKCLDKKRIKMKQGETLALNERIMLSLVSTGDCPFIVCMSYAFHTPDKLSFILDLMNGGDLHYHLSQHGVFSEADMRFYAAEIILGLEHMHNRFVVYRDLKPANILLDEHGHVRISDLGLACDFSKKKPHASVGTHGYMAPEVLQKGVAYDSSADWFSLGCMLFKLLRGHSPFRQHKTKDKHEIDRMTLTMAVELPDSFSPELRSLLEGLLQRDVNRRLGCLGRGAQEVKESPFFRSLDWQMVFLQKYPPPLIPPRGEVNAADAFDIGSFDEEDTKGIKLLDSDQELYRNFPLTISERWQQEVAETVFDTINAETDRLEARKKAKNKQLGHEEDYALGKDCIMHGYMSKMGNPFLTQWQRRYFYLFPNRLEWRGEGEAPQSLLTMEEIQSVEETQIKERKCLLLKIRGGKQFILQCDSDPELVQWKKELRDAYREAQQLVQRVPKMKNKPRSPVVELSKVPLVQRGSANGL

Molecule	efficacy at inducing internalization of the GLP-1R, in words (GLP-1R [1]; SNAP-tagged receptor in HEK293 cells, representative of n≥3)	GLP-1R GTPγS Recruitment Top (GLP-1R [2])	GLP-1R Low Density cAMP Top (GLP-1R [3])	GLP-1R β-Arr1 Recruitment Top (GLP-1R [4])	GLP-1R Internalization Top (GLP-1R [1]; efficacy (% Top), percent internalization compared to maximal GLP-1, (SEM))	GLP-1R GRK2 Recruitment Top (GLP-1R [5])
semaglutide [reference compound]	equally efficacious	–	–	–	–	–
CC[C@H](C)[C@H](NC(=O)[C@H](CC(C)C)NC(=O)[C@H](Cc1c[nH]c2ccccc12)NC(=O)[C@H](CCC(N)=O)NC(=O)[C@@H](NC(=O)[C@H](Cc1ccccc1)NC(=O)[C@H](C)NC(=O)[C@H](CCCCNC(=O)COCCOCCNC(=O)COCCOCCNC(=O)CC[C@H](NC(=O)CCCCCCCCCCCCCCCCCCC(=O)O)C(=O)O)NC(=O)[C@H](CCC(N)=O)NC(=O)[C@H](C)NC(=O)[C@@H](NC(=O)[C@H](CCCCN)NC(=O)[C@H](CC(=O)O)NC(=O)[C@H](CC(C)C)NC(=O)C(C)(C)NC(=O)[C@@H](NC(=O)[C@H](CO)NC(=O)[C@H](Cc1ccc(O)cc1)NC(=O)[C@H](CC(=O)O)NC(=O)[C@H](CO)NC(=O)[C@@H](NC(=O)[C@H](Cc1ccccc1)NC(=O)[C@@H](NC(=O)CNC(=O)[C@H](CCC(=O)O)NC(=O)C(C)(C)NC(=O)[C@@H](N)Cc1ccc(O)cc1)[C@@H](C)O)[C@@H](C)O)[C@@H](C)CC)[C@@H](C)CC)C(C)C)C(=O)N[C@@H](C)C(=O)NCC(=O)NCC(=O)N1CCC[C@H]1C(=O)N[C@@H](CO)C(=O)N[C@@H](CO)C(=O)NCC(=O)N[C@@H](C)C(=O)N1CCC[C@H]1C(=O)N1CCC[C@H]1C(=O)N1CCC[C@H]1C(=O)N[C@@H](CO)C(N)=O [Tzp, tirzepatide]	–	43.9 (1.7) %	99.5 (4.5) %	7.55 (0.93) %	41.6 (3.0) %	24.7 (2.8 ) %

Source: article PMC9060465 (Proceedings of the National Academy of Sciences of the …, 2022)
